Measured values reported in ChEMBL document CHEMBL4665851, “Design, synthesis, antimycobacterial activity and molecular docking studies of novel 3- (N-substituted glycinamido) benzoic acid analogues as anti tubercular agents” (Bioorg Med Chem Lett, 2020).
Converted amounts (≈) assume the structure as drawn.

Legend:
Conditions in all cases: time 5.0 day
[1] = tested on: Mycobacterium tuberculosis H37Rv; experiment: Inhibition of MmA1 in Mycobacterium tuberculosis H37Rv assessed as reduction in bacterial growth incubated for 5 days by MABA assay
[2] = tested on: Mycobacterium tuberculosis H37Rv; experiment: Potency index, ratio of pyrazinamide MIC to test compound MIC for Inhibition of MmA1-mediated antitubercular activity against Mycobacterium tuberculosis H37Rv incubated for 5 days by MABA assay
[3] = tested on: Mycobacterium tuberculosis H37Rv; experiment: Potency index, ratio of ciprofloxacin MIC to test compound MIC for Inhibition of MmA1-mediated antitubercular activity against Mycobacterium tuberculosis H37Rv incubated for 5 days by MABA assay
[4] = tested on: Mycobacterium tuberculosis H37Rv; experiment: Potency index, ratio of streptomycin MIC to test compound MIC for Inhibition of MmA1-mediated antitubercular activity against Mycobacterium tuberculosis H37Rv incubated for 5 days by MABA assay

Row | Compound | MIC [1] | Ratio [2] | Ratio [3] | Ratio [4]
1 | NC(=O)c1cnccn1 | 3.12 µg/mL (≈ 25.3 µM) |  |  | 
2 | O=C(CNc1ccccn1)Nc1cccc(C(=O)O)c1 | 12.5 µg/mL (≈ 46.1 µM) |  |  | 
3 | O=C(CN1CCOCC1)Nc1cccc(C(=O)O)c1 | 25 µg/mL (≈ 94.6 µM) |  |  | 
4 | O=C(CNc1ccc(Br)cc1)Nc1cccc(C(=O)O)c1 | 3.12 µg/mL (≈ 8.94 µM) |  |  | 
5 | CN1CCN(CC(=O)Nc2cccc(C(=O)O)c2)CC1 | 1.6 µg/mL (≈ 5.77 µM) | > 2 | > 2 | > 2
6 | O=C(CN1CCN(Cc2ccccc2)CC1)Nc1cccc(C(=O)O)c1 | 3.12 µg/mL (≈ 8.83 µM) |  |  | 
7 | O=C(Cn1ccnc1)Nc1cccc(C(=O)O)c1 | 12.5 µg/mL (≈ 51 µM) |  |  | 
8 | CCN(CC)CC(=O)Nc1cccc(C(=O)O)c1 | 3.12 µg/mL (≈ 12.5 µM) |  |  | 
9 | O=C(CNc1ccc(F)cc1F)Nc1cccc(C(=O)O)c1 | 1.6 µg/mL (≈ 5.22 µM) | > 2 | > 2 | > 2
10 | Cc1ccc(NCC(=O)Nc2cccc(C(=O)O)c2)cc1 | 6.25 µg/mL (≈ 22 µM) |  |  | 
11 | O=C(O)c1cn(C2CC2)c2cc(N3CCNCC3)c(F)cc2c1=O | 3.12 µg/mL (≈ 9.42 µM) |  |  | 
12 | O=C(CN1CCOCC1)Nc1cccc(C(=O)Nc2ccc3[nH]cnc(=O)c3c2)c1 | 100 µg/mL (≈ 245 µM) |  |  | 
13 | CN[C@@H]1[C@H](O[C@H]2[C@H](O[C@H]3[C@H](O)[C@@H](O)[C@H](N=C(N)N)[C@@H](O)[C@@H]3N=C(N)N)O[C@@H](C)[C@]2(O)C=O)O[C@@H](CO)[C@H](O)[C@H]1O | 6.25 µg/mL (≈ 10.7 µM) |  |  | 
14 | O=C(CN1CCCCC1)Nc1cccc(C(=O)O)c1 | 1.6 µg/mL (≈ 6.1 µM) | > 2 | > 2 | > 2
15 | O=C(CN1CCCC1)Nc1cccc(C(=O)O)c1 | 1.6 µg/mL (≈ 6.44 µM) | > 2 | > 2 | > 2
16 | O=C(CNc1ccc(Cl)cc1)Nc1cccc(C(=O)O)c1 | 6.25 µg/mL (≈ 20.5 µM) |  |  | 
17 | O=C(CN1CCN(c2ccccc2)CC1)Nc1cccc(C(=O)O)c1 | 1.6 µg/mL (≈ 4.71 µM) | > 2 | > 2 | > 2
18 | O=C(CNc1ccccc1)Nc1cccc(C(=O)O)c1 | 6.25 µg/mL (≈ 23.1 µM) |  |  | 
